Reference: patent US20240317775A1, “H4 Antagonist Compounds” (HEPTARES THERAPEUTICS LIMITED, priority 2020, published 2024)

molecular target: hERG (Homo sapiens, UniProt Q12809); assay: hERG single-concentration assay (QPatch automated patch clamp, CHO cells, 30 μM); type: cell-based; details: CHO cells stably expressing hERG
Description: Series resistance (4-15 MΩ) was compensated by >80%.

Chain of hERG (Q12809 whole entry): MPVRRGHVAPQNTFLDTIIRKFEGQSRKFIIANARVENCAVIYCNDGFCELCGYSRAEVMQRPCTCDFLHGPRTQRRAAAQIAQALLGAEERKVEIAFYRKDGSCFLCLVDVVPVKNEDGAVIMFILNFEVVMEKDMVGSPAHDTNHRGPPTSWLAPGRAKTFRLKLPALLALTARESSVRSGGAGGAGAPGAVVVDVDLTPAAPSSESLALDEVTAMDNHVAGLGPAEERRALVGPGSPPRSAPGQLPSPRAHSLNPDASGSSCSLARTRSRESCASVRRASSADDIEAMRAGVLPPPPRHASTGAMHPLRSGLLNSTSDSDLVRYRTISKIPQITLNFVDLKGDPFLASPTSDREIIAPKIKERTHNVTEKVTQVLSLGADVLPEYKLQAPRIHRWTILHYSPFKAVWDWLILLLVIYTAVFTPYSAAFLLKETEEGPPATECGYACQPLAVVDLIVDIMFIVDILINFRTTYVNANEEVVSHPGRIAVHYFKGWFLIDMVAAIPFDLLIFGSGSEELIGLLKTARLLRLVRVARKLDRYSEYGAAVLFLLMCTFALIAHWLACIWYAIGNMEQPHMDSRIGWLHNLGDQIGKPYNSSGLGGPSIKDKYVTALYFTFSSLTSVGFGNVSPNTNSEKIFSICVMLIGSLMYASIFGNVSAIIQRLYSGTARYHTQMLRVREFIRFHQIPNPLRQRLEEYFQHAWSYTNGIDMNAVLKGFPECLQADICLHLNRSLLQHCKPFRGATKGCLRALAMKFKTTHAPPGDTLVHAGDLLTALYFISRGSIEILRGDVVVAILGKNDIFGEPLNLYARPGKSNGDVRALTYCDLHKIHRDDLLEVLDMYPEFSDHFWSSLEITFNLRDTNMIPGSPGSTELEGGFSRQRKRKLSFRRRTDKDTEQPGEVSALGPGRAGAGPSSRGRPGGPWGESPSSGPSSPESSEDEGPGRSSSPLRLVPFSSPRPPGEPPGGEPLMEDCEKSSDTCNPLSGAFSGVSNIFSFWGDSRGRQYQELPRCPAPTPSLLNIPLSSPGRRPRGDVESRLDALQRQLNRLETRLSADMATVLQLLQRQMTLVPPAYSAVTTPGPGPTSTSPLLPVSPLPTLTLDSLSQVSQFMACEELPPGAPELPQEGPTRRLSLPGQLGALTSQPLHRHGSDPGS

| Structure (SMILES) | inhibition at 30 µM |
| --- | --- |
| CN[C@@H]1CCN(c2cc(NCC3CC3)nc(N)n2)C1 [PF-3893787, reference compound] | 67% |

molecular target: T1, human H4 receptor (Homo sapiens, UniProt Q9H3N8); assay: H4 Antagonist Functional cAMP Gi Assay; type: cell-based; details: HEKf cells expressing human H4 receptor; functional antagonist pKb by Cheng-Prusoff vs histamine; read-out: Human H4 cAMP fpKb (converted)
T1 construct: expressed in transfected cells; host or cells: HEKf cells infected with baculovirus
Protocol: HEKf cells were infected overnight using baculovirus expressing the human H4 receptor, then centrifuged at 1,200 rpm for 5 min, frozen in cell freezing medium (Sigma) and stored at −150° C. On the day of assay, the cells were thawed and resuspended in HBSS with 500 nM IBMX to achieve a density of 1,500 cells/well. H4 ligands were prepared in DMSO and stamped by LabCyte ECHO acoustic dispensing at 25 nL in low volume plates. 10 μL/well cells were plated in the presence of 1 μM forskolin, subjected to centrifugation at 1,200 rpm for 1 min and incubated for 30 min prior to addition of Cisbio cAMP detection reagents to a total volume 20 μL/well. […] Following detection reagent addition and shaking at room temperature for 60 min, cAMP accumulation was measured using HTRF on a PheraStar plate reader. EC50 values were generated using a 4-parameter logistical fit equation to quantify agonist potencies. Functional antagonist affinity values were generated using the Cheng-Prusoff equation to calculate a pKb value using the antagonist assay data.

| Kb | Structure (SMILES) |
| --- | --- |
| 12.6 nM | CN[C@@H]1CCN(c2nc(N)nc3c2OCC(C)N3)C1 (stereo partly drawn) [Example 1-2, 7-Methyl-4-((R)-3-(methylamino)pyrrolidin-1-yl)-7,8-dihydro-6H-pyrimido[5,4-b][1,4]oxazin-2-amine] |
| 0.631 nM | CN[C@@H]1CCN(c2nc(N)nc3c2OC[C@@H](C2CC2)N3)C1 [Example 1-6, (R)-7-Cyclopropyl-4-((R)-3-(methylamino)pyrrolidin-1-yl)-7,8-dihydro-6H-pyrimido[5,4-b][1,4]oxazin-2-amine] |
| 20 nM | CN[C@@H]1CCN(c2nc(N)nc3c2OCC(CC(C)C)N3)C1 (stereo partly drawn) [Example 1-7, 7-isobutyl-4-((R)-3-(methylamino)pyrrolidin-1-yl)-7,8-dihydro-6H-pyrimido[5,4-b][1,4]oxazin-2-amine] |
| 15.8 nM | CN[C@@H]1CCN(c2nc(N)nc3c2OC[C@@H]([C@H](C)OC)N3)C1 [Example 1-11, (S)-7-((S)-1-Methoxyethyl)-4-((R)-3-(methylamino)pyrrolidin-1-yl)-7,8-dihydro-6H-pyrimido[5,4-b][1,4]oxazin-2-amine] |
| 31.6 nM | CN[C@@H]1CCN(c2nc(N)nc3c2OCC(C2COC2)N3)C1 (stereo partly drawn) [Example 1-13, 4-((R)-3-(Methylamino)pyrrolidin-1-yl)-7-(oxetan-3-yl)-7,8-dihydro-6H-pyrimido[5,4-b][1,4]oxazin-2-amine] |
| 31.6 nM | CN[C@@H]1CCN(c2nc(N)nc3c2O[C@@H](C)[C@@H](C)N3)C1 [Example 1-16, (6S,7R)-6,7-Dimethyl-4-((R)-3-(methylamino)pyrrolidin-1-yl)-7,8-dihydro-6H-pyrimido[5,4-b][1,4]oxazin-2-amine] |
| 79.4 nM | CN[C@@H]1CCN(c2nc(N)nc3c2O[C@H](C)[C@@H](C)N3)C1 [Example 1-17, (6R,7R)-6,7-Dimethyl-4-((R)-3-(methylamino)pyrrolidin-1-yl)-7,8-dihydro-6H-pyrimido[5,4-b][1,4]oxazin-2-amine] |
| 316 nM | CN[C@@H]1CCN(c2nc(N)nc3c2O[C@@H](C)[C@H](C)N3)C1 [Example 1-18, (6S,7S)-6,7-Dimethyl-4-((R)-3-(methylamino)pyrrolidin-1-yl)-7,8-dihydro-6H-pyrimido[5,4-b][1,4]oxazin-2-amine] |
| 79.4 nM | CN[C@@H]1CCN(c2nc(N)nc3c2O[C@H](C)[C@H](C)N3)C1 [Example 1-19, (6R,7S)-6,7-Dimethyl-4-((R)-3-(methylamino)pyrrolidin-1-yl)-7,8-dihydro-6H-pyrimido[5,4-b][1,4]oxazin-2-amine] |
| 100 nM | CN[C@@H]1CCN(c2nc(N)nc3c2OCC(C(C)C)N3C)C1 (stereo partly drawn) [Example 1-20, 7-Isopropyl-8-methyl-4-((R)-3-(methylamino)pyrrolidin-1-yl)-7,8-dihydro-6H-pyrimido[5,4-b][1,4]oxazin-2-amine] |
| 39.8 nM | CN[C@@H]1CCN(c2nc(N)nc3c2OC[C@]2(C)CCCN32)C1 [Example 1-23, (S)-6a-Methyl-4-((R)-3-(methylamino)pyrrolidin-1-yl)-6a,7,8,9-tetrahydro-6H-pyrimido[5,4-b]pyrrolo[1,2-d][1,4]oxazin-2-amine] |
| 3.16 nM | CC[C@@H]1COc2c(nc(N)nc2N2CC[C@@H](N)C2)N1 [Example 2-1, (R)-4-((R)-3-Aminopyrrolidin-1-yl)-7-ethyl-7,8-dihydro-6H-pyrimido[5,4-b][1,4]oxazin-2-amine] |
| 50.1 nM | CO[C@H](C)[C@@H]1COc2c(nc(N)nc2N2CC[C@@H](N)C2)N1 [Example 2-4, (S)-4-((R)-3-Aminopyrrolidin-1-yl)-7-((R)-1-methoxyethyl)-7,8-dihydro-6H-pyrimido[5,4-b][1,4]oxazin-2-amine] |
| 79.4 nM | CO[C@@H](C)[C@@H]1COc2c(nc(N)nc2N2CC[C@@H](N)C2)N1 [Example 2-5, (S)-4-((R)-3-Aminopyrrolidin-1-yl)-7-((S)-1-methoxyethyl)-7,8-dihydro-6H-pyrimido[5,4-b][1,4]oxazin-2-amine] |
| 20 nM | COC(C)(C)[C@@H]1COc2c(nc(N)nc2N2CC[C@@H](N)C2)N1 [Example 2-6, (S)-4-((R)-3-Aminopyrrolidin-1-yl)-7-(2-methoxypropan-2-yl)-7,8-dihydro-6H-pyrimido[5,4-b][1,4]oxazin-2-amine] |
| 2 nM | CC[C@@H]1COc2c(nc(N)nc2N2CC(NC)C2)N1 [Example 3-1, (R)-7-Ethyl-4-(3-(methylamino)azetidin-1-yl)-7,8-dihydro-6H-pyrimido[5,4-b][1,4]oxazin-2-amine] |
| 7.94 nM | CNC1CN(c2nc(N)nc3c2OC[C@@H](C2CC2)N3)C1 [Example 3-3, (R)-7-Cyclopropyl-4-(3-(methylamino)azetidin-1-yl)-7,8-dihydro-6H-pyrimido[5,4-b][1,4]oxazin-2-amine] |

| Kb | Structure (SMILES) |
| --- | --- |
| 20 nM | CNC1CN(c2nc(N)nc3c2OC[C@@H]([C@H](C)OC)N3)C1 [Example 3-5, (S)-7-((S)-1-Methoxyethyl)-4-(3-(methylamino)azetidin-1-yl)-7,8-dihydro-6H-pyrimido[5,4-b][1,4]oxazin-2-amine] |
| 25.1 nM | CNC1CN(c2nc(N)nc3c2OC[C@@H](C(C)(C)OC)N3)C1 [Example 3-6, (S)-7-(2-Methoxypropan-2-yl)-4-(3-(methylamino)azetidin-1-yl)-7,8-dihydro-6H-pyrimido[5,4-b][1,4]oxazin-2-amine] |
| 79.4 nM | CC[C@@H]1COc2c(nc(N)nc2N2CC(N)C2)N1 [Example 4-1, (R)-4-(3-Aminoazetidin-1-yl)-7-ethyl-7,8-dihydro-6H-pyrimido[5,4-b][1,4]oxazin-2-amine] |
| 63.1 nM | CC(C)[C@@H]1COc2c(nc(N)nc2N2CC(N)C2)N1 [Example 4-2, (R)-4-(3-Aminoazetidin-1-yl)-7-isopropyl-7,8-dihydro-6H-pyrimido[5,4-b][1,4]oxazin-2-amine] |
| 3.16 nM | CN[C@@H]1CCN(c2ncnc3c2OC[C@@H](C2CC2)N3)C1 [Example 7-2, (R)-1-((R)-7-Cyclopropyl-7,8-dihydro-6H-pyrimido[5,4-b][1,4]oxazin-4-yl)-N-methylpyrrolidin-3-amine] |
| 31.6 nM | CN[C@@H]1CCN(c2ncnc3c2OC[C@@H]([C@@H](C)OC)N3)C1 [Example 7-4, (R)-1-((S)-7-((R)-1-Methoxyethyl)-7,8-dihydro-6H-pyrimido[5,4-b][1,4]oxazin-4-yl)-N-methylpyrrolidin-3-amine] |
| 251 nM | CN[C@@H]1CCN(c2ncnc3c2OC(C)CN3)C1 (stereo partly drawn) [Example 7-5, (3R)—N-Methyl-1-(6-methyl-7,8-dihydro-6H-pyrimido[5,4-b][1,4]oxazin-4-yl)pyrrolidin-3-amine] |
| 631 nM | CO[C@H](C)[C@@H]1COc2c(ncnc2N2CC[C@@H](N)C2)N1 [Example 8-2, (R)-1-((S)-7-((R)-1-Methoxyethyl)-7,8-dihydro-6H-pyrimido[5,4-b][1,4]oxazin-4-yl)pyrrolidin-3-amine] |
| 398 nM | CN[C@@H]1CCN(c2nc(C)nc3c2OCC(C(C)C)N3)C1 (stereo partly drawn) [Example 10-1, (3R)-1-(7-Isopropyl-2-methyl-7,8-dihydro-6H-pyrimido[5,4-b][1,4]oxazin-4-yl)-N-methylpyrrolidin-3-amine] |
| 200 nM | CN[C@@H]1CCN(c2nc(N)nc3c2OCCCN3)C1 [Example 11-1, (R)-4-(3-(Methylamino)pyrrolidin-1-yl)-6,7,8,9-tetrahydropyrimido[5,4-b][1,4]oxazepin-2-amine] |
| 12.6 nM | CN[C@@H]1CCN(c2nc(N)nc3c2OCC[C@H](C(C)C)N3)C1 [Example 11-6, (R)-8-Isopropyl-4-((R)-3-(methylamino)pyrrolidin-1-yl)-6,7,8,9-tetrahydropyrimido[5,4-b][1,4]oxazepin-2-amine] |
| 251 nM | CN[C@@H]1CCN(c2nc(N)nc3c2OCC(C)CN3)C1 (stereo partly drawn) [Example 11-7, 7-Methyl-4-((R)-3-(methylamino)pyrrolidin-1-yl)-6,7,8,9-tetrahydropyrimido[5,4-b][1,4]oxazepin-2-amine] |
| 31.6 nM | CCC1CNc2nc(N)nc(N3CC[C@@H](NC)C3)c2OC1 (stereo partly drawn) [Example 11-8, 7-Ethyl-4-((R)-3-(methylamino)pyrrolidin-1-yl)-6,7,8,9-tetrahydropyrimido[5,4-b][1,4]oxazepin-2-amine] |
| 794 nM | CN[C@@H]1CCN(c2nc(N)nc3c2OCC[C@@H]2CCCN32)C1 [Example 11-10, (S)-4-((R)-3-(Methylamino)pyrrolidin-1-yl)-6,7,7a,8,9,10-hexahydropyrimido[5,4-b]pyrrolo[1,2-d][1,4]oxazepin-2-amine] |
| 39.8 nM | CC(C)[C@H]1CCOc2c(nc(N)nc2N2CC[C@@H](N)C2)N1 [Example 12-2, (R)-4-((R)-3-Aminopyrrolidin-1-yl)-8-isopropyl-6,7,8,9-tetrahydropyrimido[5,4-b][1,4]oxazepin-2-amine] |
| 15.8 nM | CNC1CN(c2nc(N)nc3c2OCC[C@H](C(C)C)N3)C1 [Example 13-2, (R)-8-Isopropyl-4-(3-(methylamino)azetidin-1-yl)-6,7,8,9-tetrahydropyrimido[5,4-b][1,4]oxazepin-2-amine] |
| 100 nM | CN[C@@H]1CCN(c2ncnc3c2OCC[C@H](C(C)C)N3)C1 [Example 14-2, (R)-1-((R)-8-Isopropyl-6,7,8,9-tetrahydropyrimido[5,4-b][1,4]oxazepin-4-yl)-N-methylpyrrolidin-3-amine] |
